Reference: US20090088466A1, “OPIOID RECEPTOR LIGANDS” (priority 2005, published 2009)

Assays:
[1] = system: formalin-induced nociceptive responses; conditions: similar testing conditions (literature); cited from earlier work
[2] = molecular target: T1, HA-N-terminus tagged μOR (Mus musculus, UniProt P42866); assay: Immunofluorescence of cell surface receptors; type: cell-based; conditions: intact nonpermeabilized HEK-293 cells; drug treatment over 2 hours
T1 construct: expressed in transfected cells

[3] = molecular target: T2, mouse μOR-YFP (Mus musculus, UniProt P42866); assay: Agonist-induced internalization of μOR-YFP in HEK-293 cells; type: cell-based
T2 construct: expressed in transfected cells; host or cells: HEK-293 (transient; GRK2 co-transfected in panel C)

[4] = molecular target: T3, HA-μOR (Mus musculus, UniProt P42866); assay: Agonist-induced βarr2-GFP translocation to μOR in HEK-293 cells; type: cell-based
T3 construct: expressed in transfected cells; host or cells: HEK-293 (transient)

[5] = system: formalin-induced nociceptive responses; assay: Formalin rat paw withdrawal test; type: in vivo
Text: Animals: Male Sprague-Dawley rats (Harlan, Indianapolis, Ind.) weighing 250-275 g were used. Rats were housed one to two per cage with free access to food and water, and maintained on a 12-h light/dark cycle in the Association for the Assessment and Accreditation of Laboratory Animal Care-approved animal care facility. The Institutional Animal Care and Use Committee of The University of Iowa approved all experimental procedures.
Formalin Rat Paw Withdrawal Test: Rats were placed in clear plexiglass testing chambers (30.5×30.5×30.5 cm) and allowed to acclimate for 20 minutes. A mirror was placed at a 45° angle below the floor to allow for an unobstructed view of the rats paws. No restraint was placed on the rats and a HEPA filter was continuously run in order to mask external noise. Following the 20-min acclimation period, animals received a 100 μL injection of either Compound Vb (˜0.04 mg/kg) or vehicle subcutaneously in the paw and were placed back into the testing chamber for 5 minutes (Joshi et al., 2000; Joshi and Gebhart, 2003). Animals were then injected with 100 μL of a 1.25% formalin solution into the plantar surface according to the methods previously described (Dubuisson, D. & Dennis, S. G., […], Pain 4, 161-74; Wheeler-Aceto, H. & Cowan, A., 1991, Psychopharmacology (Berl) 104, 35-44; and Kaneko, M. & Hammond, D. L., 1997, J Pharmacol Exp Ther 282, 928-38). Behavior was observed and tracked for 1 hour and the number of flinches was recorded using a Windows XP-based (Microsoft, Seattle, Wash.) program. Each drug treatment group consisted of 6 rats and no rat was tested more than once. For the antagonist studies, rats were pretreated with either nor-binaltorphimine (nor-BNI) (5 mg/kg, 24 hours prior to agonist) or naloxone (5 mg/kg s.c. 30 min prior to agonist) subcutaneously behind the neck.
Chronic study: Chronic animals were given vehicle or Compound Vb alternating dorsal and plantar surface to avoid sensitization caused from injections at the same site over a 5 day period. Following administration of drug on the fifth day, rats were then administered formalin and observed as described above.

[6] = molecular target: T4, hemagglutinin (HA-N-terminus) tagged mouse μOR (Mus musculus, UniProt P42866); assay: Phospho-ERK1/2 immunoblot assay; type: cell-based
T4 construct: expressed in transfected cells

[7] = molecular target: T5, HA-tagged mu opioid receptor (Mus musculus, UniProt P42866); assay: Immunoprecipitation / μOR phosphorylation at serine 375; type: cell-based; conditions: HEK-293 cells stably expressing HA-tagged μOR; 10 μM, 10 min
T5 construct: expressed in transfected cells

[8] = molecular target: κOR (Homo sapiens, UniProt P41145); conditions: cited from earlier work
[9] = molecular target: T6, μOR1-D splice variant of the mouse μOR (Mus musculus, UniProt P42866); assay: Agonist-induced μOR1-D-GFP internalization; type: cell-based; conditions: HEK-293 transiently transfected with μOR1-D-GFP
T6 construct: expressed in transfected cells; host or cells: HEK-293 (transient)

[10] = molecular target: δOR (Homo sapiens, UniProt P41143); conditions: CHO cells stably expressing each receptor type; cited from earlier work
[11] = molecular target: μOR (Homo sapiens, UniProt P35372); conditions: CHO cells stably expressing each receptor type; cited from earlier work
[12] = HEK-293 transiently transfected with mouse μOR-YFP

Sequence of κOR (P41145 whole entry, canonical isoform): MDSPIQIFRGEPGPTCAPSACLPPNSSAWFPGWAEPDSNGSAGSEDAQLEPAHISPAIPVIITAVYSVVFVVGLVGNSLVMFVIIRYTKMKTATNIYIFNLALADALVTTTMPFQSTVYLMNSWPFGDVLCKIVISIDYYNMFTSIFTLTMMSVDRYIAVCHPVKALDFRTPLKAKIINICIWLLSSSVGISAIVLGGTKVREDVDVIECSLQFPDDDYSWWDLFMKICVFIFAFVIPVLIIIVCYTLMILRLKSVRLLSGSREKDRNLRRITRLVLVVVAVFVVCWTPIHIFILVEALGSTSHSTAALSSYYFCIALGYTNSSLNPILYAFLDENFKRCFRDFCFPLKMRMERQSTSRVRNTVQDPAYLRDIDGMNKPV
Sequence of μOR (P35372 whole entry): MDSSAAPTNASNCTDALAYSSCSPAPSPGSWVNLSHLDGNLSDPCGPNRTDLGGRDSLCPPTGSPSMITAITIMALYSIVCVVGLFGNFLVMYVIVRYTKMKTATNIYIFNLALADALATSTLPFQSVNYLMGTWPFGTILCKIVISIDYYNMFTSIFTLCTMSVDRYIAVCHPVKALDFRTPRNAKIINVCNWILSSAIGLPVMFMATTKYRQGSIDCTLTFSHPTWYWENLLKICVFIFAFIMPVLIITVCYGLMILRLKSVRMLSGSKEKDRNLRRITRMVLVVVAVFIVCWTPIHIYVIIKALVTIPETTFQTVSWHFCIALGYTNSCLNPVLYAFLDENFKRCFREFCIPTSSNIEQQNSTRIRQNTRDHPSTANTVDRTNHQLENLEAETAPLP
Sequence of δOR (P41143 whole entry): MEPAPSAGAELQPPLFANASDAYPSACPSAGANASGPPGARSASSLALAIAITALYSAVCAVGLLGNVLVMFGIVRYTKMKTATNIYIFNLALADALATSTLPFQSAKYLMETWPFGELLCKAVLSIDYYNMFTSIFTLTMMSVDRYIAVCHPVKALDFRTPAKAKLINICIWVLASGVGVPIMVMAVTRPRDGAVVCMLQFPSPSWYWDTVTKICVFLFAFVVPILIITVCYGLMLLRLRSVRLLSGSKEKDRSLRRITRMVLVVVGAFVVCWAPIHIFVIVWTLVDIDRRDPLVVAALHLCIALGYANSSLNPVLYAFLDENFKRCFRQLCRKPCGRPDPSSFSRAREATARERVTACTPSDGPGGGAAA

## COC(=O)[C@@H]1C[C@H](OS(=O)(=O)c2ccc(C)cc2)C(=O)[C@@H]2[C@@]3(C)C[C@@H](c4ccoc4)OC(=O)[C@H]3CC[C@]21C
other
  melting point: 163 to 165 °C (dec.)

## COC(=O)[C@@H]1C[C@H](OC(=O)c2ccsc2)C(=O)[C@H]2[C@@]1(C)CC[C@H]1C(=O)O[C@H](c3ccoc3)C[C@]21C
other
  melting point: 211 to 212 °C

## COC(=O)[C@@H]1C[C@@H](C(=O)CCc2ccccc2)C(=O)[C@@H]2[C@@]3(C)C[C@@H](c4ccoc4)OC(=O)[C@H]3CC[C@]21C
other
  melting point: 155 to 158 °C

## CN1CC[C@]23c4c5ccc(O)c4O[C@H]2[C@@H](O)C=C[C@H]3[C@H]1C5 [morphine]
[1]
  development of tolerance: produces tolerance

## COC(=O)[C@@H]1C[C@H](OC(=O)c2ccccc2Br)C(=O)[C@@H]2[C@@]3(C)C[C@@H](c4ccoc4)OC(=O)[C@H]3CC[C@]21C
other
  melting point: 189 to 191 °C

## COC(=O)[C@@H]1C[C@H](OC(=O)Nc2ccc([N+](=O)[O-])cc2)C(=O)[C@H]2[C@@]1(C)CC[C@H]1C(=O)O[C@H](c3ccoc3)C[C@]21C
other
  melting point: 251 to 253 °C

## COC(=O)[C@@H]1C[C@H](OS(=O)(=O)c2ccccc2)C(=O)[C@@H]2[C@@]3(C)C[C@@H](c4ccoc4)OC(=O)[C@H]3CC[C@]21C
other
  melting point: 157 to 159 °C (dec.)

## C[C@@H](NC(=O)[C@@H](N)Cc1ccc(O)cc1)C(=O)NCC(=O)N(C)[C@@H](Cc1ccccc1)C(=O)NCCO [DAMGO, [D-Ala^2, N-MePhe^4, Gly^5-ol]Enkephalin, reference compound]
[2]
  loss of cell surface receptors: 40%
[3]; [12]
  μOR-YFP internalization: Internalization can be seen
[4]; HEK-293, 1 μM
  βarr2-GFP translocation: leads to βarr2-GFP translocation within 5 min

## COC(=O)[C@@H]1C[C@H](OC(=O)c2ccccc2)C(=O)[C@H]2[C@@]1(C)CC[C@H]1C(=O)OC(c3ccoc3)C[C@]21C (stereo partly shown) [Compound Vb]
[5]; acute (Day 1) and chronic (Day 5) vs vehicle
  total number of flinches in second phase of formalin test: significantly inhibits formalin-induced flinching compared to vehicle in both treatment paradigms
[5]; chronic treatment 5 days
  antinociception Day 5 vs Day 1: significantly more Compound Vb-induced antinociception than seen on Day 1
[5]; naloxone 5 mg/kg s.c. 30 min prior
  antinociception after naloxone pretreatment: reversible by naloxone pretreatment
[5]; nor-BNI 5 mg/kg s.c. 24 hours prior
  antinociception after nor-BNI pretreatment: did not block Compound Vb's efficacy but rather significantly enhanced it
[5]; repeated administration, 5 days
  development of antinociceptive tolerance: did not lead to the development of antinociceptive tolerance
[5]; ˜0.04 mg/kg s.c. paw, 5 min prior to 1.25% formalin, acute
  antinociception in formalin paw-withdrawal test: produced significant antinociception in the second phase
[6]; HEK-293 cells stably expressing HA-tagged mouse μOR, 10 min stimulation
  ERK1/2 phosphorylation: dose dependently activates the Map Kinases, ERK1/2, in a μOR antagonist reversible manner
[6]; naloxone 10 μM during the 30 min serum starvation
  Compound Vb-induced ERK activation after naloxone pretreatment: blocked
[7]
  μOR phosphorylation at serine 375: does not promote robust phosphorylation
[8]
  affinity at κOR: retains some affinity
[9]
  μOR1-D internalization: fails to internalize this receptor variant
[10]
  affinity for δOR: no affinity
[2]
  loss of cell surface receptors: maintain the same level of cell surface receptor expression
[3]; HEK-293 overexpressing GRK2 (5 μg cDNA)
  μOR-YFP internalization: does not
[3]; [12]
  μOR-YFP internalization: do not induce receptor internalization
[4]; HEK-293, 2 μM, 10 min
  βarr2-GFP translocation: does not induce βarr2-GFP translocation
[4]; HEK-293 overexpressing GRK2, 2 μM, 10 min
  βarr2-GFP translocation: does not promote βarr2-GFP translocation
[4]; HEK-293 overexpressing GRK2, 100 μM, 30 min
  βarr2-GFP translocation: does not promote βarr2-GFP translocation
[11]
  affinity for μOR relative to κOR: greater affinity for μOR over κOR

## COC(=O)[C@@H]1C[C@H](OS(=O)(=O)c2ccc(OC)cc2)C(=O)[C@@H]2[C@@]3(C)C[C@@H](c4ccoc4)OC(=O)[C@H]3CC[C@]21C
other
  melting point: 148 to 149 °C (dec.)

## COC(=O)[C@@H]1C[C@H](OC(=O)c2cccs2)C(=O)[C@H]2[C@@]1(C)CC[C@H]1C(=O)O[C@H](c3ccoc3)C[C@]21C
other
  melting point: 143 to 145 °C

## COC(=O)[C@@H]1C[C@H](OC(=O)Cc2ccccc2)C(=O)[C@@H]2[C@@]3(C)C[C@@H](c4ccoc4)OC(=O)[C@H]3CC[C@]21C
other
  melting point: 111 to 114 °C

## COC(=O)[C@@H]1C[C@H](OC(=O)c2cccc(Br)c2)C(=O)[C@@H]2[C@@]3(C)C[C@@H](c4ccoc4)OC(=O)[C@H]3CC[C@]21C
other
  melting point: 195 to 199 °C

## COC(=O)[C@@H]1C[C@H](OC(=O)c2cc3ccccc3o2)C(=O)[C@H]2[C@@]1(C)CC[C@H]1C(=O)O[C@H](c3ccoc3)C[C@]21C
other
  melting point: 226 to 227 °C
